From patent publication US10981932B2, “Macrocyclic indole derivatives” (Bayer Aktiengesellschaft, priority 2016, dated 2021)
Where a name gives a salt, the structure may show the parent alone. Read-outs that look alike come from different tables or passages of the source.

How the values were obtained:
MCL-1 = MCL-1 (Homo sapiens, UniProt Q07820); test: Protein-protein interaction assay MCL-1/Noxa BH3 peptide (MCL-1 assay), TR-FRET; assay type: binding; settings: MBP-MCL-1 / Noxa BH3-derived peptide, median
In short: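 Steady-state competition, MCL-1/Noxa BH3, TR-FRET readout; 1 nM MBP-MCL-1, 11-point dose series 0.1 nM–20 μM; overnight 4 °C equilibration; 4-parameter IC50.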

SUDHL5 [1] = test: Induction of caspase-3/7 activity (Caspase-Glo 3/7), SUDHL5; assay type: cell-based; settings: caspase-3/7 induction, SUDHL5 cells, 3 h treatment, median
In short: (§1)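 A 3 h, 37 °C compound incubation precedes the Caspase-Glo 3/7 read. After subtracting medium-only signal, EC50s are fitted against the reference compound's maximal caspase induction.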

SUDHL10 [2] = test: Induction of caspase-3/7 activity (Caspase-Glo 3/7), SUDHL10; assay type: cell-based; settings: caspase-3/7 induction, SUDHL10 cells, 3 h treatment, median
In short: as §1

SUDHL5 [3] = test: Anti-proliferative effect (CellTiter-Glo, 72 h), SUDHL5; assay type: cell-based; settings: SUDHL5 cells, antiproliferation, median, read-out: Antiproli SUDHL5 [M] (median)
In short: (§2)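 Plate cells alongside a separate day 0 reference plate. Read the reference plate at once with CellTiter-Glo. Incubate treated cells 72 h at 37 °C, then read them the same way by luminescence.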

A2780 = test: Anti-proliferative effect (CellTiter-Glo, 72 h), A2780; assay type: cell-based; settings: A2780 cells, median, read-out: IC50 antiproliferation assay A2780 [M] (median)
In short: as §2

MV-4-11 = test: Anti-proliferative effect (CellTiter-Glo, 72 h), MV-4-11; assay type: cell-based; settings: MV-4-11 cells, median, read-out: IC50 antiproliferation assay MV-4-11 [M] (median)
In short: as §2

SUDHL5 [4] = test: Induction of cytotoxicity (CellTiter-Glo, 5 h), SUDHL5
SUDHL10 [5] = test: Induction of cytotoxicity (CellTiter-Glo, 5 h), SUDHL10
[6] = Homo sapiens, SU-DHL-5, 72 h, 72 h
[7] = Homo sapiens, SU-DHL-5, 5 h, read-out: Cytotox SUDHL5 [M] (median), SUDHL5 cells, cytotoxicity induction, CellTiter-Glo, 5 h, median
[8] = Homo sapiens, SU-DHL10, 5 h, read-out: Cytotox SUDHL10 [M] (median), SUDHL10 cells, cytotoxicity induction, CellTiter-Glo, 5 h, median
[9] = read-out: Cytotox SUDHL5 [M] (median), SUDHL5 cells, cytotoxicity induction, CellTiter-Glo, 5 h incubation, median
[10] = read-out: Cytotox SUDHL10 [M] (median), SUDHL10 cells, cytotoxicity induction, CellTiter-Glo, 5 h incubation, median
[11] = Homo sapiens, SU-DHL-5, 72 h, 72 h incubation
[12] = Homo sapiens, SU-DHL10, 5 h, read-out: Cytotox SUDHL10 [M] (median), SUDHL10 cells, cytotoxicity induction, CellTiter-Glo, 5 h incubation, median
[13] = Homo sapiens, SU-DHL-5, 5 h, read-out: Cytotox SUDHL5 [M] (median), SUDHL5 cells, cytotoxicity induction, CellTiter-Glo, 5 h incubation, median

Chain of MCL-1 (Q07820 whole entry): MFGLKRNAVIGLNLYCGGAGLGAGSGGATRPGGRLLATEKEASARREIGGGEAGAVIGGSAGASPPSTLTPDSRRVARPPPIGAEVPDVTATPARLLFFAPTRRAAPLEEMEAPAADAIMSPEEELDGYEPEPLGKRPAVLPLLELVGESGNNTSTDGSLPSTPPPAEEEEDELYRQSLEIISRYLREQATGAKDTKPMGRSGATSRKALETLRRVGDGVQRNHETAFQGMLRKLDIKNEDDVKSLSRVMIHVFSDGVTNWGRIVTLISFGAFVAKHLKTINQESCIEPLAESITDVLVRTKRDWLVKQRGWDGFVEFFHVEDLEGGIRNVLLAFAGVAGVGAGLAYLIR

Structure (SMILES)	IC50 (MCL-1) [µM]	EC50 (SUDHL5 [1]; Homo sapiens, SU-DHL-5, 3 h) [µM]	EC50 (SUDHL10 [2]; Homo sapiens, SU-DHL10, 3 h) [µM]	EC50 (SUDHL10 [2]) [µM]	IC50 (A2780; Homo sapiens, A2780, 72 h) [M]	IC50 (MV-4-11; Homo sapiens, MV4-11, 72 h) [M]	EC50 (SUDHL5 [1]) [µM]	IC50 (SUDHL5 [3]; 72 h incubation) [M]	IC50 (A2780) [M]	IC50 (MV-4-11) [M]	IC50 (SUDHL5 [4]; [9]) [M]	IC50 (SUDHL10 [5]; [10]) [M]	other results
Cn1nc2c(c1CN1CCOCC1)-c1cccc3c(CCCOc4cccc5ccccc45)c(C(=O)O)n(c13)CCCCOC2 (single isomer, unassigned; enantiomer 2) [Example 080, 2-methyl-3-(morpholin-4-ylmethyl)-7-[3-(naphthalen-1-yloxy)propyl]-2,10,11,12,13,15-hexahydropyrazolo[4′3′:9,10][1,6]oxazacycloundecino[8,7,6-hi]indole-8-carboxylic acid-N-ethylethanamine Salt (Enantiomer 2)]	0.0312	–	–	> 33	–	–	> 33	1.56e-05	2.41e-05	1.21e-05	> 3.3e-05	> 3.3e-05	–
Cn1nc(CC(F)(F)F)c2c1COCCCCn1c(C(=O)O)c(CCCOc3cccc4ccccc34)c3cccc-2c31 (single isomer, unassigned) [Example 220, 1-methyl-7-[3-(naphthalen-1-yloxy)propyl]-3-(2,2,2-trifluoroethyl)-1,10,11,12,13,15-hexahydropyrazo[4′,3′:9,10][1,6]oxazacycloundecino[8,7,6-hi]indole-8-carboxylic acid-N-ethylethanamine Salt]	0.00323	–	22.4	> 33	> 3.3e-05	2.27e-05	10.1	–	–	–	9.69e-06	–	IC50 (SUDHL5 [3]; [11]): 1.05e-05 M; IC50 (SUDHL10 [5]; [12]): > 3.3e-05 M
Cn1nc(C(F)(F)F)c2c1COCCCCn1c(C(=O)O)c(CCCOc3cccc4ccccc34)c3cccc-2c31 (single isomer, unassigned) [Example 218, 1-methyl-7-[3-(naphthalen-1-yloxy)propyl]-3-(trifluoromethyl)-1,10,11,12,13,15-hexahydropyrazolo[4′3′:9,10][1,6]oxazacycloundecino[8,7,6-hi]indole-8-carboxylic Acid]	0.559	–	–	> 33	–	–	> 33	1.71e-05	2.52e-05	3.05e-05	2.76e-05	> 3.3e-05	–
CCc1c2c(nn1CCN1CCOCC1)COCCCCn1c(C(=O)O)c(CCCOc3cccc4ccccc34)c3ccc(C)c-2c31 (single isomer, unassigned; enantiomer 2) [Example 206, 3-ethyl-4-methy-2-[2-(morpholin-4-yl)ethyl]-7-[3-(naphthalen-1-yloxy)propyl]-2,10,11,1213,15-hexahydropyrazolo[4′3′:9,10][1,6]oxazacycloundecino[8,7,6-hi]indole-carboxylic Acid (Enantiomer 2)]	0.0155	–	–	17.5	–	–	13.1	1.03e-05	2.28e-05	1.92e-05	1.4e-05	1.6e-05	–
Cc1nn(C)c2c1-c1cccc3c(CCCOc4cccc5c4CCCC5)c(C(=O)O)n(c13)CCCCCN(C)C2 [Example 240, (rac)-1,3,15-Trimethyl-7-[3-(5,6,7,8-tetrahydronaphthalen-1-yloxy)propyl]-1,10,11,12,13,14,15,16-octahydropyrazolo[4′,3′:4,5][1,7]diazacyclododecino[3,2,1-hi]indole-8-carboxylic Acid]	0.00885	11.6	> 33	–	> 3.3e-05	2.56e-05	–	–	–	–	–	–	IC50 (SUDHL5 [3]; [11]): 1.19e-05 M; IC50 (SUDHL5 [4]; [13]): 1.26e-05 M; IC50 (SUDHL10 [5]; [12]): > 3.3e-05 M
CN1CCCCn2c(C(=O)O)c(CCCOc3cccc4ccccc34)c3cccc(c32)-c2c(CC(F)(F)F)nn(C)c2C1 (racemic) [Example 222, (rac)-1,14-dimethyl-7-[3-(naphthalen-1-yloxy)propyl]-3-(2,2,2-trifluoroethyl)-10,11,12,13,14,15-hexahydro-1H-pyrazolo[3′,4′:8,9][1,6]diazacycloundecino[10,11,1-hi]indole-8-carboxylic Acid]	0.00597	14.4	18.2	–	2.46e-05	7.87e-06	–	–	–	–	–	–	IC50 (SUDHL5 [3]; [11]): 9.85e-06 M; IC50 (SUDHL5 [4]; [13]): 1.15e-05 M; IC50 (SUDHL10 [5]; [12]): 2.01e-05 M

Further lines, with some results ahead:

IC50 (MCL-1) [µM]	EC50 (SUDHL5 [1]; Homo sapiens, SU-DHL-5, 3 h) [µM]	EC50 (SUDHL10 [2]; Homo sapiens, SU-DHL10, 3 h) [µM]	EC50 (SUDHL10 [2]) [µM]	IC50 (A2780; Homo sapiens, A2780, 72 h) [M]	IC50 (MV-4-11; Homo sapiens, MV4-11, 72 h) [M]	EC50 (SUDHL5 [1]) [µM]	IC50 (SUDHL5 [3]; 72 h incubation) [M]	IC50 (A2780) [M]	IC50 (MV-4-11) [M]	Structure (SMILES)	IC50 (SUDHL5 [4]; [9]) [M]	IC50 (SUDHL10 [5]; [10]) [M]	other results
0.00238	8.51	32	> 33	> 3.3e-05	1.82e-05	–	–	–	–	CCc1nn(C)c2c1-c1cccc3c(CCCOc4cccc5c4CCCC5)c(C(=O)O)n(c13)CCCCOC2 (racemic) [Example 291, (rac)-12-ethyl-10-methyl-1-(3-((5,6,7,8-tetrahydronaphthalen-1-yl)oxy)propyl)-4,5,6,7,9,10-hexahydropyrazolo[4′,3′:9,10][1]oxa[6]azacycloundecino[8,7,6-hi]indole-2-carboxylic Acid]	–	–	IC50 (SUDHL5 [3]; [6]): 8.71e-06 M; IC50 (SUDHL5 [4]; [7]): 8.6e-06 M; IC50 (SUDHL10 [5]; [8]): > 3.3e-05 M
1.6	–	–	26.6	–	–	25.5	7.56e-06	7.5e-06	1.57e-05	Cc1ccc2c(C(C)CCOc3cccc4cc(F)ccc34)c(C(=O)O)n3c2c1-c1c(nn(C)c1C)COCCCC3 (single isomer, unassigned) [Example 279, 7-{4-[(6-fluoronaphthalen-1-yl)oxy]butan-2-yl}-2,3,4-trimethyl-2,10,11,12,13,15-hexahydropyrazolo[4′,3′:9,10][1,6]oxazacycloundecino[8,7,6-hi]indole-8-carboxylic Acid]	2.05e-05	2.94e-05	–
0.0196	–	–	16.8	–	–	14.6	–	1.46e-05	4.15e-06	Cn1nc(COCc2ccc(C#N)cc2)c2c1COCCCCn1c(C(=O)O)c(CCCOc3cccc4ccccc34)c3cccc-2c31 (single isomer, unassigned; enantiomer 2) [Example 348, 3-{[(4-cyanobenzyl)oxy]methyl}-1-methyl-7-[3-(naphthalen-1-yloxy)propyl]-1,10,11,12,13,15-hexahydropyrazolo[4′,3′:9,10][1,6]oxazacycloundecino[8,7,6-hi]indole-8-carboxylic acid-N-ethylethanamine Salt (Enantiomer 2)]	–	–	IC50 (SUDHL5 [3]; 72 h): 5.12e-06 M; IC50 (SUDHL5 [4]; read-out: Cytotox SUDHL5 [M] (median), SUDHL5 cells, cytotoxicity induction, CellTiter-Glo, 5 h, median): 1.38e-05 M; IC50 (SUDHL10 [5]; read-out: Cytotox SUDHL10 [M] (median), SUDHL10 cells, cytotoxicity induction, CellTiter-Glo, 5 h, median): 2.81e-05 M
0.142	–	–	> 33	–	–	26.3	1.19e-05	1.26e-05	1.49e-05	Cc1ccc2c(C(C)CCOc3cccc4cc(F)ccc34)c(C(=O)O)n3c2c1-c1c(nn(C)c1C)COCCCC3 (single isomer, unassigned) [Example 278, 7-{4-[(6-fluoronaphthalen-1-yl)oxy]butan-2-yl}2,3,4-trimethyl-2,10,11,12,13,15-hexahydropyrazolo[4′,3′:9,10][1,6]oxazacycloundecino[8,7,6-hi]indole-8-carboxylic Acid]	2.48e-05	> 3.3e-05	–
0.00308	17.7	> 33	–	> 3.3e-05	> 3.3e-05	–	–	–	–	Cc1nn(C)c2c1-c1cccc3c(CCCOc4cccc5c(Cl)cccc45)c(C(=O)O)n(c13)CCCCOC2 (racemic) [Example 316, (rac)-1-(3-((5-chloronaphthalen-1-yl)oxy)propyl)-10,12-dimethyl-4,5,6,7,9,10-hexahydropyrazolo[4′,3′:9,10][1,6]oxaazacycloundecino[8,7,6-hi]indole-2-carboxylic Acid]	–	–	IC50 (SUDHL5 [3]; [6]): 1.43e-05 M; IC50 (SUDHL5 [4]; [7]): 1.94e-05 M; IC50 (SUDHL10 [5]; [8]): > 3.3e-05 M
